Results taken from ChEMBL document CHEMBL1157707, “Lead optimization of N-3-substituted 7-morpholinotriazolopyrimidines as dual phosphoinositide 3-kinase/mammalian target of rapamycin inhibitors: discovery of PKI-402” (J Med Chem, 2010).
Values after ≈ are worked out from the molar mass of the structure shown. Active and inactive are the calls of the source. No cut-off for these calls is given here.

Key:
[1] = Solubility at pH 7.4; assay type: physicochemical; settings: buffer
[2] = target: Serine/threonine-protein kinase mTOR (Homo sapiens, UniProt P42345); experiment: Inhibition of mTOR by DELFIA
PC-3 = experiment: cells; settings: Homo sapiens, PC-3, 72 h
MDA-MB-361 = experiment: cells; settings: Homo sapiens, MDA-MB-361, 72 h
in vitro = settings: rat
[3] = Metabolic stability in mouse liver microsomes assessed as half life; assay type: ADME, Microsome
[4] = Metabolic stability in human liver microsomes assessed as half life; assay type: ADME, Microsome
[5] = target: Phosphatidylinositol 4,5-bisphosphate 3-kinase catalytic subunit alpha isoform (Homo sapiens, UniProt P42336)
cells = settings: Homo sapiens, MDA-MB-361, 4 h
[6] = Solubility at pH 3; assay type: physicochemical; settings: buffer
[7] = target: Phosphatidylinositol 4,5-bisphosphate 3-kinase catalytic subunit gamma isoform (Homo sapiens, UniProt P48736); experiment: Inhibition of human PI3Kgamma by fluorescence polarization format assay
Mus musculus [8] = experiment: Antitumor activity against human MDA-MB-361 cells implanted in mouse assessed as suppression of P70S6K phosphorylation at 50 mg/kg, iv; assay type: functional, organism-based; design: dose 50 mg/kg
Mus musculus [9] = experiment: Antitumor activity against human MDA-MB-361 cells implanted in mouse assessed as suppression of S6 phosphorylation at 50 mg/kg, iv; assay type: functional, organism-based; design: dose 50 mg/kg
Mus musculus [10] = experiment: Antitumor activity against human MDA-MB-361 cells implanted in mouse assessed as suppression of Akt T308 phosphorylation at 50 mg/kg, iv; assay type: functional, organism-based; design: dose 50 mg/kg
Mus musculus [11] = experiment: Antitumor activity against human MDA-MB-361 cells implanted in mouse assessed as suppression of Akt S473 phosphorylation at 50 mg/kg, iv; assay type: functional, organism-based; design: dose 50 mg/kg
[12] = Drug level in human MDA-MB-361 cells implanted mouse tumor at 50 mg/kg, iv; assay type: ADME, organism-based, Neoplasm; design: dose 50 mg/kg, route intravenous; settings: in vivo
Mus musculus [13] = experiment: Plasma concentration in human MDA-MB-361 cells implanted mouse at 50 mg/kg, iv; assay type: ADME, organism-based; design: dose 50 mg/kg, route intravenous; settings: in vivo

Sequence of Phosphatidylinositol 4,5-bisphosphate 3-kinase catalytic subunit alpha isoform (P42336 whole entry, canonical isoform): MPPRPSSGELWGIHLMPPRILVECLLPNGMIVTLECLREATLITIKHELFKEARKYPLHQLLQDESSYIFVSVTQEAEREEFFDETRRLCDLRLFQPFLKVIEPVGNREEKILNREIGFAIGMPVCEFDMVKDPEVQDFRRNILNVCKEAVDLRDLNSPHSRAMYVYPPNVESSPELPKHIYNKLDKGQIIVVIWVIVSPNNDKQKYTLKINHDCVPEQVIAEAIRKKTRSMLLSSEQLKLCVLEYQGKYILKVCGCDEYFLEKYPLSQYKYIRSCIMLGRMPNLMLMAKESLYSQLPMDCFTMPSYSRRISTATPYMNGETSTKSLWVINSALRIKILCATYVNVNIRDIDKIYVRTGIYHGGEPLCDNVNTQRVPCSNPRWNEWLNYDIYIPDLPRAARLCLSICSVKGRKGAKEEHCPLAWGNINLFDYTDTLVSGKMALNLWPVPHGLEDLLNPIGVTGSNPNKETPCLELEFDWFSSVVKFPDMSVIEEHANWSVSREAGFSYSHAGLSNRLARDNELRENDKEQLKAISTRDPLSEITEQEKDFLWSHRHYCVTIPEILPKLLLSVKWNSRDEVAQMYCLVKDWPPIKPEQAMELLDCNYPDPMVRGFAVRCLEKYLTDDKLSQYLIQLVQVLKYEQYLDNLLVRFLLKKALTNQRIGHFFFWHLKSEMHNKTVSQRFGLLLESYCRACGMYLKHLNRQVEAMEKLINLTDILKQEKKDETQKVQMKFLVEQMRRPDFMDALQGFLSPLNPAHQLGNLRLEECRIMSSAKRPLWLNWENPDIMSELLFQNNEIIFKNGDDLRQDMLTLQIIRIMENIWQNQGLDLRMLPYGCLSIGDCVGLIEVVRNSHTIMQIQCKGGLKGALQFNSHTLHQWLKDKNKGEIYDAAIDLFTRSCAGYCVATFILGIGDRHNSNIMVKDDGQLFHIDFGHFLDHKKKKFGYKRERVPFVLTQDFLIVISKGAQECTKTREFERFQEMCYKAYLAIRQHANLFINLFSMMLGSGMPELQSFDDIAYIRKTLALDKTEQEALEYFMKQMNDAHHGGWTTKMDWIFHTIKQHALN
Sequence of Phosphatidylinositol 4,5-bisphosphate 3-kinase catalytic subunit gamma isoform (P48736 whole entry, canonical isoform): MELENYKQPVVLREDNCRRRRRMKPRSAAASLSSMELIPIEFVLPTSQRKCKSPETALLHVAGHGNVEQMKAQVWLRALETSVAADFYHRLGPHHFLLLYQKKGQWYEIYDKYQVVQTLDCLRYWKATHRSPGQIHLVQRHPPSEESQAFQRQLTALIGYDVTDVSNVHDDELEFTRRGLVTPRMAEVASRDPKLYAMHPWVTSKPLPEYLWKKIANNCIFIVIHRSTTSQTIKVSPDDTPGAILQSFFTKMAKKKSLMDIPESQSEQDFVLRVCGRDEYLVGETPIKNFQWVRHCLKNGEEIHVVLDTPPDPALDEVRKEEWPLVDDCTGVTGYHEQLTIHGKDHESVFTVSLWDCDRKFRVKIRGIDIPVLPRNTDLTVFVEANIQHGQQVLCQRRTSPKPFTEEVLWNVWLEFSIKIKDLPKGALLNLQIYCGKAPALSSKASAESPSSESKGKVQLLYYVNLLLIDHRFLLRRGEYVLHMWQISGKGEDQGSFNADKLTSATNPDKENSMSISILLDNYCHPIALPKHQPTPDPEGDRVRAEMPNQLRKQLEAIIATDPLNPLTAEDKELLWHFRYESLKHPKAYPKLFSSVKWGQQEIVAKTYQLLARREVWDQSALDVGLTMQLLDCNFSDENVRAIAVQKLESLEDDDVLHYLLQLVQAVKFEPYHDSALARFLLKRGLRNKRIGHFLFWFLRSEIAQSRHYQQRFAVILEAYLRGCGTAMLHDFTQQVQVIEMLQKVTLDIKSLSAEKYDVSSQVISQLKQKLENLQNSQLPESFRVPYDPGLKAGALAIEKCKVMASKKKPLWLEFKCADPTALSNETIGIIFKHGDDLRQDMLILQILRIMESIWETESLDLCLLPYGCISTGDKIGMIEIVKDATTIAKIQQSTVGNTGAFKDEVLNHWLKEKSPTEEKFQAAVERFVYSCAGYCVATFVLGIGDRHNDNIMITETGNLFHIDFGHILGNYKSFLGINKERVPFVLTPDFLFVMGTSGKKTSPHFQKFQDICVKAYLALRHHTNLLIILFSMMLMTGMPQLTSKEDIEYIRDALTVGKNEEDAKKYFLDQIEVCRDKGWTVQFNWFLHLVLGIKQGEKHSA

Row | solubility [1] [µg/mL] | IC50 [2] [nM] | IC50 (PC-3) [nM] | IC50 (MDA-MB-361) [nM] | half-life (in vitro; liver microsomes) [min] | IC50 [5] [nM] | Compound | also measured
1 | 1 (≈ 2.18 µM) | 0.57 | 91 | 39 | 24 |  | CC(C)n1nnc2c(N3CCOCC3)nc(-c3ccc(NC(=O)Nc4cccnc4)cc3)nc21 | 
2 | 1 (≈ 2.19 µM) | 0.57 | 90 | 67 | 24 | 10.5 | O=C(Nc1ccc(-c2nc(N3CCOCC3)c3nnn(C4CC4)c3n2)cc1)Nc1cccnc1 | IC50 [7]: 48.5 nM
3 | 18 (≈ 40.4 µM) | 0.63 | 49 | 35 | 27 | 5 | CCn1nnc2c(N3CCOCC3)nc(-c3ccc(NC(=O)Nc4ccncc4)cc3)nc21 | 
4 |  | 634 |  |  |  |  | OCc1cccc(-c2nc(N3CCOCC3)c3ncn(C4CCN(Cc5ccccc5)CC4)c3n2)c1 | 

Continued, molecule first:

Row | Compound | solubility [1] [µg/mL] | IC50 [2] [nM] | IC50 (PC-3) [nM] | IC50 (MDA-MB-361) [nM] | half-life (in vitro; liver microsomes) [min] | IC50 [5] [nM] | also measured
5 | Cn1nnc2c(N3CCOCC3)nc(-c3ccc(NC(=O)Nc4cccs4)cc3)nc21 | 2 (≈ 4.58 µM) | 3.7 | 366 | 184 | 9 |  | 
6 | CCn1nnc2c(N3CCOCC3)nc(-c3ccc(NC(=O)Nc4ccc(C(=O)NCCCN(C)C)cc4)cc3)nc21 | 100 (≈ 175 µM) | 2.2 | 116 | 41 | 26 | 2.4 | half-life [3]: 26 min; half-life [4]: 30 min; IC50 (cells): 44 nM; solubility [6]: 100 µg/mL (≈ 175 µM)
7 | CC(C)n1nnc2c(N3CCOCC3)nc(-c3ccc(NC(=O)Nc4ccc(N(C)C)cc4)cc3)nc21 |  | 1.6 | 171 | 84 | 7 |  | 
8 | O=C(Nc1ccncc1)Nc1ccc(-c2nc(N3CCOCC3)c3nnn(C4CC4)c3n2)cc1 |  | 0.84 | 70 | 31 | 21 |  | 
9 | CCn1nnc2c(N3CCOCC3)nc(-c3ccc(NC(=O)Nc4ccc(C(=O)NCCN5CCN(C)CC5)cc4)cc3)nc21 | 1 (≈ 1.63 µM) | 1.1 | 67 | 24 | 17 | 3.2 | half-life [3]: 28 min; IC50 (cells): 74 nM; solubility [6]: 100 µg/mL (≈ 163 µM)
10 | CCn1nnc2c(N3CCOCC3)nc(-c3ccc(NC(=O)Nc4ccc(C(=O)NCCN(C)C)cc4)cc3)nc21 | > 100 | 0.5 | 52 | 13 |  |  | IC50 [7]: 12 nM; Activity (Mus musculus [8]): Active; half-life [3]: 28 min; Activity (Mus musculus [9]): Active; Activity (Mus musculus [10]): Active; Activity (Mus musculus [11]): Active; Drug uptake [12]: 2130 ng/mL; Cp (Mus musculus [13]): 1229 ng/mL; half-life [4]: > 30 min; half-life (in vitro; microsomes): 29 min; IC50 (cells): 16 nM; solubility [6]: > 100 µg/mL
11 | CC(C)n1nnc2c(N3CCOCC3)nc(-c3ccc(NC(=O)Nc4ccncc4)cc3)nc21 |  | 0.51 | 67 | 54 | > 30 |  | 
12 | CC(C)n1nnc2c(N3CCOCC3)nc(-c3ccc(NC(=O)Nc4ccc(C(N)=O)cc4)cc3)nc21 |  | 0.31 | 57 | 38 | 9 | 3.6 | 
13 | CCn1nnc2c(N3CCOCC3)nc(-c3ccc(NC(=O)Nc4ccnc(C)c4)cc3)nc21 | 3 (≈ 6.53 µM) | 21 | 252 | 196 | 11 |  | 
